# Target: T1, histamine H2 receptor (Cavia porcellus, UniProt P47747)
# T1 construct: enucleated atrium of a guinea pig; from tissue; host or cells: guinea pig atrium
# Test: Histamine H2-blocking effect in enucleated guinea pig atrium (inhibition of histamine-increased pulse)
# Format: cell-based
# Conditions: in vitro; enucleated guinea pig atrium pretreated with drug; negative logarithm of antagonist dose shifting histamine dose-response curve corresponding to doubling of histamine concentration; read-out: pA2 (converted)
# Description: In the table 10, the symbol pA2 indicates the degree of pulse inhibition of the compounds (I) in the present invention in the enucleated atrium of a guinea pig. The assigned number of compounds in the table conforms to the number of the examples.
# (Note) PA2 is an in vitro indicator of histamine H2 -blocking effect. […] The result was shown by negative logarithms of the dose of antagonist which is required to shift the dose-response curve of histamine in parallel to the side corresponding to a doubling of the concentration of histamine [Ariens, Molecular Pharmacology, vol./, Academic Press, New York (1964)].
# T1 sequence (P47747 whole entry): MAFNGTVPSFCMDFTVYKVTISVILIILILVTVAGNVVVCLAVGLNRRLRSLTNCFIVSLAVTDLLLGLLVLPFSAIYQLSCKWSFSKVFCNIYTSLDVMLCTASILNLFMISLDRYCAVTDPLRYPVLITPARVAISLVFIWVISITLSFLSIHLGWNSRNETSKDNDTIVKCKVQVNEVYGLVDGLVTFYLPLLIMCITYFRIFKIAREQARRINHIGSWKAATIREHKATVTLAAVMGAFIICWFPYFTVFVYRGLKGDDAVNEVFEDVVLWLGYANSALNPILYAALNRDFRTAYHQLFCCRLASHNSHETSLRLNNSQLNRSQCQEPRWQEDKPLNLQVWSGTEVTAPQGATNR
row,Compound,Kb
1,"O=C(/C=C/C(=O)NCCCOc1cccc(CN2CCCC2)c1)NCCCOc1cccc(CN2CCCC2)c1 [Example 10, N,N'-bis{3-[3-(1-pyrrolidinylmethyl)phenoxy]propyl}fumaramide]",53.7 nM
2,O=C(NCCCOc1cccc(CN2CCCC2)c1)c1ccc(C(=O)NCCCOc2cccc(CN3CCCC3)c2)cc1 [Example 11],204 nM
3,"O=C(CSCC(=O)NCCCOc1cccc(CN2CCCC2)c1)NCCCOc1cccc(CN2CCCC2)c1 [Example 12, N,N'-bis{3-[3-(1-pyrrolidinylmethyl)phenoxy]propyl}thiodiglycoldamide]",66.1 nM
4,O=C(NCCCOc1cccc(CN2CCCC2)c1)c1cccc(C(=O)NCCCOc2cccc(CN3CCCC3)c2)c1 [Example 14],60.3 nM

# Source: patent US4433154A, “Bis(carboxamide) derivatives” (Shionogi & Company, Limited, priority 1981, dated 1984)
